Laboratory results taken from patent US20120093809A1, “USE OF ALKANOYL L-CARNITINE IN COMBINATION WITH CHEMOTHERAPEUTIC AGENTS FOR THE TREATMENT OF NEOPLASMS” (priority 2008, published 2012).

Columns and labels:
[1] = system: NCI-H1650 non-small cell lung carcinoma cells; test: Antiproliferative activity of cisplatin with and without acetyl L-carnitine, MTT assay; type: cell-based; conditions: acetyl L-carnitine 10 mM where combined, 6 days of exposure, 0.1% FBS
Description: (§1) Moreover, the activity was also evaluated on two prostate tumor cell lines with p53 wild-type (LnCaP) or p53 null (PC3). […] The number of surviving cells was finally determined by the tetrazolium salt (MTT) assay, as described by Hansen M B et al. (Re-examination and further development of a precise and rapid dye method for measuring cell growth/cell kill. J. Immunol. Methods 119: 203-10, 1989). […] In this case the statistical comparison was performed by Mann-Whitney test.
(§2) To test the effects of the compounds on cell growth, tumor cells were seeded in 96-well tissue culture plates at approximately 10% confluence and were allowed to attach and recover for at least 24 h. Tumor cells were exposed to compounds for 72 h or 6 days in 0.1% FBS at 37° C., then medium culture was removed and 100 μL/well of medium were added containing 25 μL/well of a solution 5 mg/mL MTT (final 1 mg/mL). Plates were kept at. 37° C. in incubator with 5% CO2 for 2 h for the formation of blu chrystals. The supernatant was removed and 100 μL/well of lysant medium were added. Plates were kept under stirring for 60 min. The survival cell was determined as optical density by a Multiskan spectrofluorimeter at 570 nm.

[2] = system: SJSA-1 (with amplification of mdm2) osteosarcoma cells; test: as above; type: cell-based; conditions: acetyl L-carnitine 10 mM where combined, 72 h of exposure followed by 72 h of recovery, 0.1% FBS
Description: as §1, §2

[3] = system: LnCaP prostate carcinoma cells (p53 wild-type); test: as above; type: cell-based; conditions: acetyl L-carnitine 10 mM where combined, 6 days of exposure, 0.1% FBS
Description: as §1, §2

[4] = system: PC3 prostate carcinoma cells (p53 null); test: as above; type: cell-based; conditions: acetyl L-carnitine 10 mM where combined, 72 h of exposure, 0.1% FBS
Description: as §1, §2

[5] = system: SW620 colon carcinoma with mutant p53; type: in vivo, CD1 nude mice; conditions: day +20; cisplatin 4 mg/kg ip, alone or with acetyl L-carnitine 200 mg/kg po
Description: (§3) Treatments started three days after cancer injection.
When tumors reached a volume of about 1 cm^3, mice were sacrificed by cervical dislocation.
(§4) Body weight recording was carried out through the study.

[6] = system: A549 non-small cell lung carcinoma; test: Antitumor activity of acetyl L-carnitine in combination with cisplatin, s.c. xenograft; type: in vivo
Description: Treatments started six days after cancer injection.
(§5) When tumors reached a volume of about 1 cm3, mice were sacrificed by cervical dislocation.
as §4

[7] = system: NCI-H1650 non-small cell lung carcinoma; test: as above; type: in vivo
Description: Treatments started eleven days after cancer injection.
as §5, §4

[8] = system: NCI-H460 non-small cell lung carcinoma cells; test: Antiproliferative activity of cisplatin with and without acetyl L-carnitine, MTT assay; type: cell-based; conditions: acetyl L-carnitine 10 mM where combined, 72H of exposure, 0.1% FBS
Description: as §1
(§6) To test the effects of the compounds on cell growth, tumor cells were seeded in 96-well tissue culture plates at approximately 10% confluence and were allowed to attach and recover for at least 24 h. […] Plates were kept at. 37° C. in incubator with 5% CO2 for 2 h for the formation of blu chrystals. The supernatant was removed and 100 μL/well of lysant medium were added. Plates were kept under stirring for 60 min. The survival cell was determined as optical density by a Multiskan spectrofluorimeter at 570 nm.

[9] = system: A2780/Dx multidrug-resistant ovarian carcinoma cells; test: as above; type: cell-based; conditions: acetyl L-carnitine 10 mM where combined, 6 days of exposure, 0.1% FBS
Description: as §1, §6

[10] = system: NCI-H460 non-small cell lung carcinoma; test: Antitumor activity of cisplatin in combination with L-carnitine, s.c. xenograft; type: in vivo; conditions: cisplatin 4 mg/kg ip, alone or with L-carnitine 200 mg/kg po
Description: (§7) Treatments started three days after tumor injection.
(§8) To evaluate the antitumor activity, tumor diameters were measured with a Vernier caliper.
(§9) When tumors reached a volume of 1-2 cm^3, mice were sacrificed by cervical dislocation. Body weight recording was carried out through the study and mortality was noted.

[11] = system: NCI-H460 NSCLC; test: Antitumor activity of cisplatin in combination with acetyl L-carnitine, s.c. xenograft; type: in vivo; conditions: cisplatin ip q3-4dx5, alone or with acetyl L-carnitine 200 mg/kg p.o. qdx5/wx4w
Description: as §7
Mice were subdivided (12 mice/group) in the following experimental groups:
Acetyl L-carnitine was administered immediately before the drug given in combination.
as §8, §9

[12] = system: IGROV-1 ovarian carcinoma; type: in vivo, CD1 nude mice; conditions: day +41; cisplatin 4 mg/kg ip, alone or with acetyl L-carnitine 200 mg/kg po
Description: as §3
When tumors reached a volume of about 1-2 cm^3, mice were sacrificed by cervical dislocation.
as §4

[13] = system: lung metastases; conditions: cisplatin alone, 6 to 8 mg/kg; cited from earlier work
[14] = cisplatin 4 mg/kg ip, alone or with acetyl L-carnitine 200 mg/kg po
[15] = day +41, cisplatin 4 mg/kg ip, alone or with acetyl L-carnitine 200 mg/kg po

N.N.[Cl][Pt][Cl] [Cisplatin]
IC50 ([1]; IC50±SD of cisplatin): 1.5 µM
CELL SURVIVAL % ± SE ([1]; cisplatin 78 nM): 98 ± 4.0%
CELL SURVIVAL % ± SE ([1]; cisplatin 312 nM): 92 ± 2.0%
CELL SURVIVAL % ± SE ([1]; cisplatin 625 nM): 81 ± 3.0%
CELL SURVIVAL % ± SE ([1]; cisplatin […]): 95 ± 1.0%
IC50 ([2]; IC50±SD of cisplatin): 3.2 µM
CELL SURVIVAL % ± SE ([2]; cisplatin 312 nM): 100 ± 3.0%
CELL SURVIVAL % ± SE ([2]; cisplatin 625 nM): 90 ± 6.0%
CELL SURVIVAL % ± SE ([2]; cisplatin 1250 nM): 90 ± 2.0%
CELL SURVIVAL % ± SE ([2]; cisplatin 2500 nM): 64 ± 2.0%
CELL SURVIVAL % ± SE ([2]; cisplatin 5000 nM): 35 ± 1.0%
IC50 ([3]; IC50±SD of cisplatin): 7.8 µM
CELL SURVIVAL % ± SE ([3]; cisplatin 1250 nM): 92 ± 2%
CELL SURVIVAL % ± SE ([3]; cisplatin 2500 nM): 74 ± 5%
CELL SURVIVAL % ± SE ([3]; cisplatin 5000 nM): 67 ± 2%
CELL SURVIVAL % ± SE ([3]; cisplatin 10000 nM): 51 ± 3%
IC50 ([4]; IC50±SD of cisplatin): 4.63 µM
CELL SURVIVAL % ± SE ([4]; cisplatin 625 nM): 97%
CELL SURVIVAL % ± SE ([4]; cisplatin 1250 nM): 89%
CELL SURVIVAL % ± SE ([4]; cisplatin 2500 nM): 76%
CELL SURVIVAL % ± SE ([4]; cisplatin 5000 nM): 52%
CELL SURVIVAL % ± SE ([4]; cisplatin 10000 nM): 26%
TV ± SE +20 [5]: 244 ± 45 mm^3
TVI % ± SE +20 [5]: 55 ± 10%
BWL % max ([6]; cisplatin 4 mg/kg ip q3-4d/wx3w, alone or with acetyl L-carnitine 200 mg/kg po qdx5/wx4w): 8%
TV ± SE [6, 14]: 208 ± 55 mm^3
TVI % ± SE [6, 14]: 49 ± 12%
BWL % max ([7]; cisplatin 4 mg/kg ip q3-4d/wx3w, alone or with acetyl L-carnitine 200 mg/kg po qdx5/wx5w): 10%
TV ± SE +41 [7, 15]: 206 ± 32 mm^3
TVI % ± SE +41 [7, 15]: 23 ± 4%
IC50 ([8]; IC50±SD of cisplatin): 0.4 µM
CELL SURVIVAL % ± SE ([8]; cisplatin 39 nM): 96 ± 2.4%
CELL SURVIVAL % ± SE ([8]; cisplatin 78 nM): 93 ± 4.0%
CELL SURVIVAL % ± SE ([8]; cisplatin 312 nM): 61 ± 2.0%
CELL SURVIVAL % ± SE ([8]; cisplatin 625 nM): 39 ± 1.0%
CELL SURVIVAL % ± SE ([8]; cisplatin 1250 nM): 24 ± 0.7%
CELL SURVIVAL % ± SE ([8]; cisplatin […]): 82 ± 2.0%
IC50 ([9]; IC50±SD of cisplatin): 0.73 µM
CELL SURVIVAL % ± SE ([9]; cisplatin 625 nM): 62 ± 2.0%
CELL SURVIVAL % ± SE ([9]; cisplatin 1250 nM): 40 ± 1.0%
CELL SURVIVAL % ± SE ([9]; cisplatin 2500 nM): 31 ± 1.0%
CELL SURVIVAL % ± SE ([9]; cisplatin […]): 86 ± 2.0%
TV ± SE +32 ([10]; day +32): 345 ± 90 mm^3
Leth. ([10]; dead/total mice): 0/9
LCK (1 cm^3) ([11]; DT = 2.6 days): 0.6
TVI % +31 ([11]; day +31): 41%
TV ± SE +41 [12]: 231 ± 55 mm^3
TVI % ± SE +41 [12]: 35 ± 8%
number of lung metastases [13]: significantly reduced the number of lung metastases
